Measured values as given in US20050256210A1, “Compounds with activity at estrogen receptors” (priority 2004, published 2005).
Where two headings read alike, the source gives them in different places.

Assays:
[1] = target: T1, Estrogen receptor alpha (ERα) (Homo sapiens, UniProt P03372); experiment: Receptor Selection and Amplification Technology (R-SAT) functional receptor assay, ERα; type: cell-based; details: for Emax / % Efficacy ERα: NIH3T3 cells, efficacy relative to the reference ligand Estrone; for EC50 / pEC50 ERα: transfected NIH3T3 cells, agonist activity
T1 construct: expressed in transfected cells; host or cells: NIH3T3
T1 sequence (P03372 1-595): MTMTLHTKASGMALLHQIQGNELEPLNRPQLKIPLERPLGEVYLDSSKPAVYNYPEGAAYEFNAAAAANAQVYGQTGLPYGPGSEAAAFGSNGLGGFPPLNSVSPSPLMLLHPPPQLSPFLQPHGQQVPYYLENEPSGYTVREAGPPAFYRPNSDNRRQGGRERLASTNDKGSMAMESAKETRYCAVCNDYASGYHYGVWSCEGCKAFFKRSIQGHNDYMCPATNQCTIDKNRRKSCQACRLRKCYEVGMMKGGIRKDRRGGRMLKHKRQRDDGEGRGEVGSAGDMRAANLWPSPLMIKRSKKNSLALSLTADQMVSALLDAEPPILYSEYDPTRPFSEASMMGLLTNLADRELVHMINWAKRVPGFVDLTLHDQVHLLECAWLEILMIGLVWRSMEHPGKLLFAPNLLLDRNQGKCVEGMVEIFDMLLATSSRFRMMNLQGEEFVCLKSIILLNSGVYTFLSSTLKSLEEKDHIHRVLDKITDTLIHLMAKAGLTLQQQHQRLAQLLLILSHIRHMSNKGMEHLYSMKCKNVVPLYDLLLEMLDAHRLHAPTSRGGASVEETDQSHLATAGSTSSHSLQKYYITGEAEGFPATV
Experimental: (§1) The functional receptor assay, Receptor Selection and Amplification Technology (R-SAT™), was used with minor modifications from the procedure described in U.S. Pat. No. 5,707,798, which is hereby incorporated by reference in its entirety, to screen compounds for efficacy at the Estrogen receptors alpha and beta (ERα, ERβ). NIH3T3 cells were grown in roller bottles to 70-80% confluence. Cells were then transfected for 12-16 h with plasmid DNAs using Polyfect (Qiagen Inc.) as per the manufacturer's protocol. R-SAT assays were typically performed by transfecting 30 ug/bottle of receptor and 50 ug/bottle of β-galactosidase plasmid DNA. All receptor and helper constructs used were in mammalian expression vectors. Helpers are defined as signaling molecules that modulate both ligand-dependent and/or ligand-independent function of the ER receptors, typically co-activators and kinases. NIH3T3 cells were transfected for 12-16 h, then trypsinized and frozen in DMSO. Frozen cells were later thawed, plated at 10,000-40,000 cells per well of a 96 well plate containing 4-(1-Phenyl-cyclohexyl)-phenol. Cells were then grown in a humidified atmosphere with 5% ambient CO2 for five days. Media was then removed from the plates and marker gene activity was measured by the addition of the β-galactosidase substrate o-nitrophenyl β-D-galactopyranoside (ONPG, in PBS with 5% NP-40). The resulting colorimetric reaction was measured in a spectrophotometric plate reader (Titertek Inc.) at 420 nM. All data were analyzed using the computer program XLFit (IDBSm).
These experiments provided a molecular profile, or fingerprint, for each agent tested at the human Estrogen receptors.

[2] = target: T2, Estrogen receptor beta (ERβ) (Homo sapiens, UniProt Q92731); experiment: Receptor Selection and Amplification Technology (R-SAT) functional receptor assay, ERβ; type: cell-based
T2 construct: expressed in transfected cells; host or cells: NIH3T3
Experimental: as §1, with “NIH3T3” for “The functional receptor assay, Receptor Selection and Amplification Technology (R-SAT™), was used with minor modifications from the procedure described in U.S. Pat. No. 5,707,798, which is hereby incorporated by reference in its entirety, to screen compounds for efficacy at the Estrogen receptors alpha and beta (ERα, ERβ). NIH3T3”, “The resulting colorimetric reaction was measured in a spectrophotometric plate reader (Titertek Inc.) at 420 nM.” left out

male Sprague-Dawley rats = experiment: CFA induced arthritis rat model assay (hot plate latency, paw thickness); type: in vivo; details: 1.0, 3.0 or 10 mg/kg s.c. daily from Day 4 after CFA
Experimental: Naïve, male Sprague-Dawley rats (225-250 g; n=6 per group) served as subjects. Response latencies to a noxious thermal stimulus were measured using the 52° C. hot plate test. After obtaining baseline responses, 0.1 ml of Freund's complete adjuvant (CFA) or vehicle (inactivated CFA (iCFA)) was injected into the dorsal surface of the left hind paw. Response latencies were again measured 4 days following CFA (or iCFA) administration, a time point when thermal hyperalgesia is stable. A significant decrease in the hot plate latency was interpreted as the presence of thermal hyperalgesia. Following testing, thickness of both hind paws were measured (using a micrometer) in order to quantify possible edema formation at the injection site. Various doses of 4-(1-Phenyl-cyclohexyl)-phenol (ERB-002) (1.0, 3.0 or 10 mg/kg) or vehicle (DMSO) were administered (s.c.) following testing on Day 4, and then daily following testing for a period of 3 days.

[3] = system: immature female Sprague-Dawley rats; experiment: Uterotrophic in vivo assay (uterine weight); parameters: species or system rat; details: 10, 30 or 100 mg/kg s.c. daily for 3 days; FIG. 4
Experimental: The effect of ERB-002 on uterine weight was assessed based on the previously published method of Harris et al., Endocrin, 2003, 143:4172, which is hereby incorporated by reference in its entirety. Naïve, female Sprague-Dawley rats (30-40 g; n=6 per group) served as subjects. Rats received daily subcutaneous injections of vehicle (100% DMSO), PPT (1.0 mg/rat)), a reportedly selective ERα agonist (Stauffer, 2000, J Med Chem 43:4934) or various doses of ERB-002 (10, 30 or 100 mg/kg) for a total of 3 days. Approximately 24 hours after the final injection, the rats were sacrificed, the uteri removed, trimmed of adhesions, fluid expelled and then weighed. Uterine weight was normalized as a percentage of total body weight by the following formula: % TBW=[(uterus weight (in mg)[…])/(body weight (in g))]*100.

[4] = R-SAT, NIH3T3 cells, efficacy relative to the reference ligand Estrone
[5] = R-SAT, transfected NIH3T3 cells, agonist activity
[6] = R-SAT, NIH3T3 cells, efficacy relative to the reference ligand Estrone, read-out: % Efficacy ERβ
[7] = R-SAT, transfected NIH3T3 cells, agonist activity, read-out: pEC50 ERβ (converted)

T2 sequence (Q92731 whole entry): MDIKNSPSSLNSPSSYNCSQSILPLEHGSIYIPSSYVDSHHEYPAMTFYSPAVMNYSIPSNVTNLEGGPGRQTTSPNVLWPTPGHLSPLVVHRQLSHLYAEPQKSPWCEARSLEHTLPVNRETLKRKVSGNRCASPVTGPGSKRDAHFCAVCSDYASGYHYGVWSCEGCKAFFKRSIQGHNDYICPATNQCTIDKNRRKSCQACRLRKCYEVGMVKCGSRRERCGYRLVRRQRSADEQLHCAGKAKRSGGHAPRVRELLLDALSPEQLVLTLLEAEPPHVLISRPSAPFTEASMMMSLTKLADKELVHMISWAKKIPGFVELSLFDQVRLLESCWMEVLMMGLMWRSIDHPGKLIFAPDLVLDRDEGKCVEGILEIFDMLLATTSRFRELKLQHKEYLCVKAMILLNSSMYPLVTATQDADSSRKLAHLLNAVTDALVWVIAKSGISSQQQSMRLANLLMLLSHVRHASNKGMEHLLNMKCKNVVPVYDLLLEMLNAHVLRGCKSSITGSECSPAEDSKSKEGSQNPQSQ

Row | SMILES | Emax [1] | EC50 [1] | Emax [2, 6] | EC50 [2, 7] | also measured
1 | Oc1ccc(C2(c3ccccc3)CCCCC2)cc1 [ERB-002, 4-(1-Phenylcyclohexyl)phenol] | 50% | 3160 nM |  |  | EC50 [2]: 63.1 nM; Emax ([2]; NIH3T3, read-out: % Efficacy ERβ): 85%; selectivity of activation of ERβ relative to ERα ([2]; R-SAT, Table 1 and FIG. 1): selectively activates Estrogen beta receptor (ERβ) relative to the Estrogen alpha receptor (ERα); reversal of thermal hyperalgesia (52° C. hot plate latency) (male Sprague-Dawley rats; FIG. 2): dose dependent reversal of thermal hyperalgesia; reversal of edema (paw thickness) (male Sprague-Dawley rats; FIG. 3): dose dependent reversal of edema; uterotrophic properties (uterine weight as % of total body weight) [3]: does not display uterotrophic properties
2 | Oc1ccc(C2(c3ccc(F)c(F)c3)CCCCC2)cc1 [ERB-009] |  |  |  |  | % Efficacy ERα [1]: 100%; pEC50 ERα [1]: 5.4; % Efficacy ERβ [2, 4]: 138%; pEC50 ERβ [2, 5]: 7.2
3 | Oc1ccc(C2(c3ccc(F)cc3F)CCCCC2)cc1 [ERB-011, 4-(1-(2,4-Difluoro-phenyl)-cyclohexyl)-phenol] | 20% | > 10000 nM | 37% | 79.4 nM | 
4 | Oc1ccc(C2(c3ccccc3)CCCCCC2)cc1 [ERB-012, 4-(1-Phenyl-cycloheptyl)-phenol] | 69% | 631 nM | 41% | 126 nM | 
5 | Oc1ccc(C2(c3ccc(F)cc3)CCCCCC2)cc1O [ERB-014, 4-[1-(4-Fluoro-phenyl)-cycloheptyl]-benzene-1,2-diol] | 120% | 1260 nM | 87% | 79.4 nM | 
6 | Oc1ccc(C2(c3ccccc3)CCCCCCC2)cc1 [ERB-017, 4-(1-Phenyl-cyclooctyl)-phenol] | 80% | 251 nM | 46% | 6.31 nM | 
7 | Oc1ccc(C2(c3ccccc3)CCC(C(F)(F)F)CC2)cc1 (stereo not shown) [ERB-030, 4-(1-Phenyl-[4-(trifluoromethyl)-cyclohexyl])-phenol] | 95% | 2510 nM | 46% | 63.1 nM | 
8 | Oc1ccc(C2(c3ccc(F)cc3)CCC(C(F)(F)F)CC2)cc1 (stereo not shown) [ERB-031, 4-(1-(4-Flourophenyl)-[4-(trifluoromethyl)-cyclohexyl])-phenol] |  |  |  |  | % Efficacy ERα [1]: 124%; pEC50 ERα [1]: 5.6; % Efficacy ERβ [2, 4]: 62%; pEC50 ERβ [2, 5]: 6.1
9 | CC(C)C1CCC(c2ccc(O)cc2)(c2cccc(F)c2)CC1 (stereo not shown) [ERB-037, 4-[1-(3-Fluoro-phenyl)-4-isopropyl-cyclohexyl]-phenol] | 114% | 1580 nM | 48% | 7.94 nM | 
